{
  "source": "patent US20170079970A1",
  "about": "“TETRAHYDROQUINOLINE DERIVATIVES AND THEIR USE AS EPAC1 INHIBITORS FOR THE TREATMENT OF MYOCARDIAL INFARCTION INJURY” (INSERM (INSTITUT NATIONAL DE LA SANTÉ ET DE LA RECHERCHE …, priority 2014, published 2017)",
  "test_system": "Isolated mouse adult cardiomyocytes",
  "assay": "Hypoxia and hypoxia-reoxygenation induced cardiomyocyte death, LDH release",
  "type": "cell-based",
  "conditions": "pretreated with 10 μM",
  "procedure": "FIG. 4. A pharmacological inhibitor of Epac1, R-CE3F4 prevents hypoxia and hypoxia-reoxygenation induced cardiomyocyte death. Isolated mouse adult cardiomyocytes, pretreated or not with either 10 μM R-CE3F4 or its analogue ΔCHO (10 μM) were exposed to hypoxia (HX) for 4 h followed by a 2 h of reoxygenation period (HX+R). Cell death was determined by LDH release. Results are expressed as means±S.E.M. The bar graph represents the average of 5 independent experiments performed in triplicate. Statistical significance was determined by 2-way ANOVA. * P<0.05 compared with indicated values.\nMyocardial infarction was induced in wild-type (WT) versus Epac1^−/− littermates by left anterior descending coronary artery (LAD) ligation for 24 h. Ischemia/Reperfusion was induced by the left anterior descending coronary artery occlusion for 45 min and followed by 24 h of reperfusion. The area at risk (AAR) and infarct size were evaluated by Evans blue and TTC staining, respectively. […] Isolated mouse adult cardiomyocytes pretreated with either R-CE3F4 or (ΔCHO) were exposed to hypoxia (HX) for 4 h followed by a 2 h of reoxygenation period (HX+R). Cell death was determined by LDH release.",
  "data": [
    {"smiles": "C[C@@H]1CCc2c(cc(Br)c(F)c2Br)N1C=O", "note": "[R-CE3F4]", "values": [
      {"measurement": "HX+R-induced cardiomyocyte death (LDH release)", "setting": "hypoxia 4 h followed by 2 h reoxygenation (HX+R)", "result": "significantly prevented"},
      {"measurement": "HX-induced cardiomyocyte death (LDH release)", "setting": "hypoxia (HX) for 4 h", "result": "significantly prevented"}
    ]}
  ]
}
